Test results as given in US20050090532A1, “Medicinal uses of dihydropyrazoles” (The Procter & Gamble Company, priority 2001, published 2005).
pEC50: −log10 of the molar value.

system: VEGF; assay: VEGF-ELISA assay, VEGF secretion from HL-1 cardiomyocyte cell line; type: cell-based, murine; conditions: VEGF production; HL-1 cells, 18 hr, 10 concentrations 200 nM to 100 μM; read-out: EC50 (concentration of compound that induces the production of an amount of VEGF equal to half the maximum amount of VEGF induced by the compound)
Protocol: Any compound of the present invention can be screened by a VEGF-ELISA assay. VEGF secretion is assayed in the HL-1 cardiomyocyte cell line as described in Claycomb. W. C., “HL-1 cells: a cardiac muscle cell line that contracts and retains phenotypic characteristics of the adult cardiomyocyte”, Proc. Natl. Acad. Sci U.S.A., Vol. 95, pp. 2979-84 (1998). For experiments, HL-1 cells are plated in 96-well plates at a density of 2×10^4 cells per well in growth medium: EXCEL 320 media (JRH Biosciences, Lenexia, Kans.) plus 10% fetal bovine serum (BioWhitaker), 100 nM retinoic acid (Sigma, St. Louis, Mo.), 10 μM norepinephrine (Sigma), 10 μg/ml insulin (Life Technologies, Grand Island, N.Y.), 1× non-essential amino acid supplement (Life Technologies), 50 μg/ml endothelial cell growth supplement (Upstate Biotechnology, Lake Placid, N.Y.), 100 units/ml penicillin, 100 units/ml streptomycin (Life Technologies). After 24 hrs, the media is replaced with a low-growth media (HL-1 media with 2% fetal bovine serum and without endothelial cell growth supplement) containing test compounds with 0.5% dimethyl sulfoxide (DMSO). After 18 hrs, conditioned media from the treated cells was assayed for VEGF content with a Murine VEGF-ELISA kit (R&D Systems, Minneapolis, Minn.). The amount of VEGF secreted into the media over an 18 hr period is normalized to positive control wells which are treated with a maximally effective concentration (1 mM) of deferoxamine mesylate (Sigma, St. Louis) and are reported as “percent activity,” where the VEGF in unstimulated wells is defined as 0% and the VEGF in wells treated with 1 mM deferoxamine is defined as 100%. Potency is determined by stimulating cells with 10 concentrations of test compounds (200 nM to 100 μM) and fitting the data to a variable slope sigmoidal dose-response curve using GraphPad Prism version 3.00 for Windows 95 (GraphPad Software, San Diego, Calif.). Determinations for each test compound are performed in three separate experiments and the means ± standard deviation of the […] and maximum response are evaluated. Compounds for pharmaceutical use are selected based upon the greatest percent activity.

First: CN(C)c1ccc(C2CC(c3ccccc3)=NN2c2ccccc2)cc1 (centres unmarked) [Example 17, [4-(2,5-Diphenyl-3,4-dihydro-2H-pyrazol-3-yl)-phenyl]-dimethyl-amine]
Second: c1ccc(C2CC(c3ccccn3)=NN2c2ccccc2)cc1 (centres unmarked) [Example 1, 2-(1,5-Diphenyl-4,5-dihydro-1H-pyrazol-3-yl)-pyridine]
The pEC50 of the first is 0.58 log units higher: 5.22 for the first, 4.64 for the second. The first is the more potent here.

`COc1ccccc1C1CC(c2ccccc2O)=NN1c1ccccn1` (centres unmarked) [Example 7, 2-[5-(2-Methoxy-phenyl)-1-pyridin-2-yl-4,5-dihydro-1H-pyrazol-3-yl]-phenol] and `Oc1ccccc1C1=NN(c2ccccn2)C(c2ccccc2O)C1` (centres unmarked) [Example 9, 2-[5(2-hydroxy-phenyl)-1-pyridin-2-yl-4,5-dihydro-1H-pyrazol-3-yl]-phenol] are within 0.2 log units of each other in pEC50: 5.26 for the first, 5.27 for the second.

Compared with `COc1ccc(C2CC(c3ccc4ccccc4c3)=NN2C)cc1` (centres unmarked) [Example 18, 5-(4-Methoxy-phenyl)-1-methyl-3-naphthalen-2-yl-4,5-dihydro-1H-pyrazole], `CN1N=C(c2ccc3ccccc3c2)CC1c1ccc(F)cc1` (centres unmarked) [Example 19, 5-(4-Fluoro-phenyl)-1-methyl-3-naphthalen-2-yl-4,5-dihydro-1H-pyrazole] is 0.48 log units higher in pEC50: 4.96 for the first, 5.44 for the second. The second is the more potent here.

Compared with `N#CCCN1N=C(c2ccccc2O)CC1c1ccccn1` (centres unmarked) [Example 13, 3-[3-(2-Hydroxy-phenyl)-5-pyridin-2-yl-4,5-dihydro-pyrazol-1-yl]-propionitrile], `OCCN1N=C(c2ccccc2O)CC1c1ccccn1` (centres unmarked) [Example 12, 2-[1-(2-Hydroxy-ethyl)-5-pyridin-2-yl-4,5-dihydro-1H-pyrazol-3-yl]-phenol] is 0.55 log units lower in pEC50: 4.74 for the first, 4.19 for the second.

Going from `Cc1ccc(N2N=C(c3ccccn3)CC2c2ccccc2)cc1` (centres unmarked) [Example 14, 2-(5-Phenyl-1-p-tolyl-4,5-dihydro-1H-pyrazol-3-yl)-pyridine] to `Brc1ccc(N2N=C(c3ccccn3)CC2c2ccccc2)cc1` (centres unmarked) [Example 15, 2-[1-(4-Bromo-phenyl)-5-phenyl-4,5-dihydro-1H-pyrazol-3-yl]-pyridine], the pEC50 falls from 5.70 to 5.20 (0.50 log units). The first is the more potent here.

Compared with `CN1N=C(c2ccccc2O)CC1c1nccs1` (centres unmarked) [Example 11, 2-(1-Methyl-5-thiazol-2-yl-4,5-dihydro-1H-pyrazol-3-yl)-phenol], `CN1N=C(c2ccccc2O)CC1c1ccccn1` (centres unmarked) [Example 10, 2-(1-Methyl-5-pyridin-2-yl-4,5-dihydro-1H-pyrazol-3-yl)-phenol] is 0.88 log units lower in pEC50: 4.92 for the first, 4.04 for the second.

`COc1ccc(C2CC(c3ccccc3O)=NN2c2ccccn2)cc1` (centres unmarked) [Example 6, 2-[5-(4-Methoxy-phenyl)-1-pyridin-2-yl-4,5-dihydro-1H-pyrazol-3-yl]-phenol] and `Cc1ccc(C2CC(c3ccccc3O)=NN2c2ccccn2)cc1` (centres unmarked) [Example 5, 2-(1-Pyridin-2-yl-5-p-tolyl-4,5-dihydro-1H-pyrazol-3-yl)-phenol] are within 0.2 log units of each other in pEC50: 5.25 for the first, 5.24 for the second.

First: Oc1ccccc1C1=NN(c2nc3ccccc3s2)C(c2ccccc2)C1 (centres unmarked) [Example 4, 2-(1-Benzothiazol-2-yl-5-phenyl-4,5-dihydro-1H-pyrazol-3-yl)-phenol]
Second: Oc1ccccc1C1=NN(c2ccccn2)C(c2ccccc2)C1 (centres unmarked) [Example 3, 2-(5-Phenyl-1-pyridin-2-yl-4,5-dihydro-1H-pyrazol-3-yl)-phenol]
The pEC50 of the first is 1.20 log units lower: 4.57 for the first, 5.77 for the second. The second is the more potent here.

Going from `c1ccc(C2=NN(c3ccccn3)C(c3ccccc3)C2)cc1` (centres unmarked) [Example 2, 2-(3,5-Diphenyl-4,5-dihydro-pyrazol-1-yl)-pyridine] to `Clc1cccc(C2CC(c3ccccn3)=NN2c2ccccc2)c1` (centres unmarked) [Example 16, 2-[5-(3-Chloro-phenyl)-1-phenyl-4,5-dihydro-1H-pyrazol-3-yl]-pyridine], the pEC50 rises from 5.22 to 5.77 (0.55 log units). The second is the more potent here.

Compared with `CN1N=C(c2ccc3ccccc3c2)CC1c1ccc(C(F)(F)F)cc1` (centres unmarked) [Example 20, 1-Methyl-3-naphthalen-2-yl-5-(4-trifluoromethyl-phenyl)-4,5-dihydro-1H-pyrazole], `Oc1ccccc1C1=NN(c2ccccn2)C(c2ccccn2)C1` (centres unmarked) [Example 8, 2-(1,5-Di-pyridin-2-yl-4,5-dihydro-1H-pyrazol-3-yl)-phenol] is 0.38 log units higher in pEC50: 4.89 for the first, 5.27 for the second. The second is the more potent here.
